Measured values: patent publication US5696151A, “Compounds useful for the inhibition of the replication of HIV-1 and HIV-1 mutants” (priority 1995, dated 1997)
In brackets after ≈: the same amount, converted by molar mass. Where two headings read alike, the source gives them in different places.

Key:
[1] = system: HIV-1/Lys-138; test: Inhibition of HIV-1 induced syncytium formation in CEM cells, RT mutant 138-Lys; type: cell-based; conditions: day 4, averages of 2 to 3 independent experiments; for Antiviral Activity of Comparative Compounds EC50, 138-Lys: Table 2B; for EC50: Human immunodeficiency virus 1, CCRF-CEM, 96 h, Table 2A, read-out: Antiviral Activity EC50, 138-Lys
In short: (§1)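 CEM cells (≈300,000 cells/ml) were infected with about 100 CCID50 of HIV-1(IIIB) or an RT mutant strain and added to 5-fold serial dilutions of test compound. Inhibition of HIV-1-induced syncytium formation was scored microscopically on day 4 post infection.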

[2] = system: HIV-1/100-Ile; test: Inhibition of HIV-1 induced syncytium formation in CEM cells, RT mutant 100-Ile; type: cell-based; conditions: day 4, averages of 2 to 3 independent experiments; for Antiviral Activity of Comparative Compounds EC50, 100-Ile: Table 2B; for EC50: Human immunodeficiency virus 1, CCRF-CEM, 96 h, Table 2A, read-out: Antiviral Activity EC50, 100-Ile
In short: as §1

[3] = system: HIV-1(IIIB); test: Inhibition of HIV-1 induced syncytium formation in CEM cells, wild type; type: cell-based; conditions: WT = HIV-1(IIIB), day 4, averages of 2 to 3 independent experiments; for Antiviral Activity of Comparative Compounds EC50, WT: Table 2B; for EC50: Human immunodeficiency virus 1, IIIB, CCRF-CEM, 96 h, Table 2A, read-out: Antiviral Activity EC50, WT
In short: as §1

[4] = system: HIV-1/103-Asn; test: Inhibition of HIV-1 induced syncytium formation in CEM cells, RT mutant 103-Asn; type: cell-based; conditions: Human immunodeficiency virus 1, CCRF-CEM, 96 h, day 4, averages of 2 to 3 independent experiments
Source text: (§2) CEM cells were obtained from the American Tissue Cell Culture Collection (Rockville, Md.). HIV-1(IIIB) was originally obtained from the culture supernatant of persistently HIV-1-infected H9 cells and was provided by R. C. Gallo and M. Popovic (National Cancer Institute, National Institutes of Health, Bethesda, Md.). […] 67: 5353-5359 (1993); HIV-1/Lys-138 ("Lys-138") was selected for resistance against TSAO-m^3T as described in Balzarini et al, Virology 192: 246-253 (1993) and Balzarini et al, Proc. Nat. Acad. Sci. USA 90: 6952-6956 (1993); HIV-1/181-Cys ("181-Cys") was selected for resistance against pyridinone L-697,661 as described in Balzarini et al, Virology 192: 246-253 (1993); and HIV-1/188-His ("188-His") was selected for resistance against HEPT as described in Balzarini et al, Mol. Pharmocol. 44: 694-701 (1993). 188-His was then further converted to HIV-1/188-Leu "188-Leu") upon further passage in cell culture in the absence of the HEPT.
(§3) CEM cells were suspended at ≈300,000 cells per ml of culture medium and infected with approximately 100 CCID50 (CCID50 being the 50% cell culture infective dose) of HIV-1(IIIB) or one of the HIV-1 RT mutant strains described above. Then 100 μl of the infected cell suspensions was added to 200 μl microtiter plate wells containing 100 μl of appropriate serial (5-fold) dilutions of the test compounds. The inhibitory effect of the test compounds on HIV-1 induced syncytium formation in CEM cells was examined microscopically on day 4 post infection.

[5] = system: HIV-1/181-Cys; test: Inhibition of HIV-1 induced syncytium formation in CEM cells, RT mutant 181-Cys; type: cell-based; conditions: day 4, averages of 2 to 3 independent experiments; for Antiviral Activity of Comparative Compounds EC50, 181-Cys: Table 2B; for EC50: Human immunodeficiency virus 1, CCRF-CEM, 96 h, Table 2A, read-out: Antiviral Activity EC50, 181-Cys
In short: as §1

[6] = system: HIV-1/188-Leu; test: Inhibition of HIV-1 induced syncytium formation in CEM cells, RT mutant 188-Leu; type: cell-based; conditions: Human immunodeficiency virus 1, CCRF-CEM, 96 h, day 4, averages of 2 to 3 independent experiments
Source text: as §2, §3

[7] = system: CEM cells; test: in vitro; type: cell-based; conditions: Table 2B; CEM cell proliferation; averages of 2 to 3 independent experiments
In short: (§4)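 Value is the 50% cytostatic concentration, the compound concentration that inhibits CEM cell proliferation by 50%. HIV-1(IIIB) and NNRTI-resistant variants selected in culture (Lys-138, 181-Cys, 188-His, 188-Leu) were used alongside.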

[8] = system: HIV-1/106-Ala; test: Inhibition of HIV-1 induced syncytium formation in CEM cells, RT mutant 106-Ala; type: cell-based; conditions: day 4, averages of 2 to 3 independent experiments; for Antiviral Activity of Comparative Compounds EC50, 106-Ala: Table 2B; for EC50: Human immunodeficiency virus 1, CCRF-CEM, 96 h, Table 2A, read-out: Antiviral Activity EC50, 106-Ala
In short: as §1

[9] = system: HIV-1 strains containing the 100 Leu →Ile mutation in their RT; conditions: background, Balzarini I and II; cited from earlier work
[10] = system: HIV-1 RT mutant strains; test: Antiviral activity in CEM cells against the HIV-1 RT mutant strains; type: cell-based; conditions: Human immunodeficiency virus 1, CCRF-CEM, read-out: EC50 values against the HIV-1 RT mutant strains
Source text: as §2
as §3, with “The inhibitory effect of the test compounds on HIV-1 induced syncytium formation in CEM cells was examined microscopically on day 4 post infection.” left out

[11] = system: HIV-1(IIIB) and the HIV-1 RT mutants; test: Antiviral activity in CEM cells against wild type and RT mutants; type: cell-based
Source text: as §2
as §3, with “The inhibitory effect of the test compounds on HIV-1 induced syncytium formation in CEM cells was examined microscopically on day 4 post infection.” left out

[12] = in vitro; type: cell-based; conditions: human, cem cells, CC50 (50% cytostatic concentration), Table 2A; CEM cell proliferation; averages of 2 to 3 independent experiments
In short: as §4

[13] = Table 2A, read-out: Antiviral Activity EC50, 103-Asn
[14] = Table 2A, read-out: Antiviral Activity EC50, 188-Leu

SMILES	Antiviral Activity of Comparative Compounds EC50, 138-Lys [1] [µg/mL]	Antiviral Activity of Comparative Compounds EC50, 100-Ile [2] [µg/mL]	Antiviral Activity of Comparative Compounds EC50, WT [3] [µg/mL]	EC50 ([4]; Table 2B, read-out: Antiviral Activity of Comparative Compounds EC50, 103-Asn) [µg/mL]	Antiviral Activity of Comparative Compounds EC50, 181-Cys [5] [µg/mL]	EC50 ([6]; Table 2B, read-out: Antiviral Activity of Comparative Compounds EC50, 188-Leu) [µg/mL]	CC50 (50% cytostatic concentration) [7] [µg/mL]	Antiviral Activity of Comparative Compounds EC50, 106-Ala [8] [µg/mL]	resistance of 100 Leu →Ile RT mutant strains [9]	EC50 [1] [µg/mL]	EC50 [2] [µg/mL]	EC50 [3] [µg/mL]	EC50 [4, 13] [µg/mL]	EC50 [10] [µg/mL]	EC50 [5] [µg/mL]	EC50 values against HIV-1(IIIB) and the HIV-1 RT mutants (in words) [11]	EC50 [6, 14] [µg/mL]	CC50 [12] [µg/mL]	EC50 [8] [µg/mL]
Cc1sccc1C(=S)Nc1ccc(Cl)c(C(=O)OC2CCCCC2)c1 [Compound 9]	0.02	0.057	0.0032	0.13 (≈ 0.33 µM)	0.032	≥ 2	6.0 (≈ 15.2 µM)	0.03											
Cc1sccc1C(=S)Nc1ccc(Cl)c(C(=O)OC2CCCCC2)c1 [Compound 59]	0.40	0.65	0.09		0.35		15 (≈ 38.1 µM)	0.60											
Cc1sccc1C(=O)Nc1ccc(Cl)c(C(=O)OC2CCCCC2)c1 [Compound 58]	6.0	5.5	0.19		5.0		6.5 (≈ 17.2 µM)	7.0											
CC(C)=CCN1Cc2cccc3[nH]c(=S)n(c23)C[C@@H]1C [Compound R82150]									resistant										
Cc1occc1C(=S)Nc1ccc(Cl)c(C=NOC(C)(C)C)c1 [Compound 114]	0.075	0.085	0.05		0.075		5.8 (≈ 16.5 µM)	0.13											
CC(C)=CCOc1cc(NC(=S)c2ccsc2C)ccc1Cl [Compound IB, N-[4-chloro-3-(3-methyl-2-butenyloxy)-phenyl]-2-methyl-3thiophenecarbothioamide]										0.005 (≈ 0.0142 µM)	0.004 (≈ 0.0114 µM)	0.003 (≈ 0.00852 µM)	0.004 (≈ 0.0114 µM)	0.003 to 0.011 (≈ 0.00852 to 0.0313 µM)	0.005 (≈ 0.0142 µM)	extremely low, and virtually similar EC50 values	0.6 (≈ 1.7 µM)	5.8 (≈ 16.5 µM)	0.005 (≈ 0.0142 µM)
CC(C)=CCOc1cc(NC(=S)c2ccoc2C)ccc1Cl [Compound IA, N-[4-chloro-3-(3-methyl-2-butenyloxy)phenyl]-2-methyl-3-furancarbothioamide]										0.005 (≈ 0.0149 µM)	0.003 (≈ 0.00893 µM)	0.003 (≈ 0.00893 µM)	0.006 (≈ 0.0179 µM)	0.003 to 0.011 (≈ 0.00893 to 0.0328 µM)	0.011 (≈ 0.0328 µM)	extremely low, and virtually similar EC50 values	0.5 (≈ 1.49 µM)	> 100	0.005 (≈ 0.0149 µM)
